The values below come from patent publication US6406679B1, “Use of HL-60-related lectins in drug delivery and detection of lectin-expressing cells” (Incyte Pharmaceuticals, Inc., priority 1992, dated 2002).

The target in assay [1] is T1, 14 kD lectins (HL-60 cells, placenta, recombinant E. coli) (Homo sapiens, UniProt P09382).
T1 construct: the N-terminal methionine of the HL-60 lectin appears to be cleaved, and the remaining protein can be acetylated; secretion signal (only the E. coli-made preparation); made in house; host or cells: three preparations tested side by side: purified from HL-60 cells, purified from human placenta tissue, recombinant from E. coli (secretion signal)
Kind of assay: Inhibition by competing sugars of lectin-induced agglutination of trypsinized rabbit erythrocytes. The assay is classed as biochemical. To be noted: FIG. 5. An excerpt: (§1) Biological activity of the inventive 14 kD lectins 1) isolated from HL-60 cells, 2) isolated from placenta tissue or 3) prepared recombinantly from E. coli cells transfected with lectin cDNA operably linked to a secretion signal was ascertained by agglutination of trypsinized rabbit erythrocytes.

For assay [2], the system named is trypsinized rabbit erythrocytes. Kind of assay: Agglutination of trypsinized rabbit erythrocytes. The settings on record: control, FIG. 5. In kind it is cell-based.
Description: as §1

The target of assay [3] is epitope recognized by M3 antibody on human blood cells (macrophages) (human). The assay is described as follows: flow cytometry of human blood cells pretreated with lectin, then stained with fluoresceinated M3 antibody, against untreated control. Background: In flow cytometry, cells or beads pass a laser one at a time.
Assay [4] has as its target epitope recognized by M1 antibody on human blood cells (macrophages) (human). Kind of assay: flow cytometry of human blood cells pretreated with lectin, then stained with fluoresceinated M1 antibody, against untreated control.

T1 sequence (P09382 2-135 limits assumed): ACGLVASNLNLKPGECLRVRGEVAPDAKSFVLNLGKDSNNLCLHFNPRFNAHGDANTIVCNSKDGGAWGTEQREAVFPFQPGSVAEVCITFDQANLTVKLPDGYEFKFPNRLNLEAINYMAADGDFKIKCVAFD

Consider `OC[C@H]1O[C@@H](S[C@@H]2O[C@H](CO)[C@H](O)[C@H](O)[C@H]2O)[C@H](O)[C@@H](O)[C@H]1O` [Thiodigalactoside, thiodigalactoside], for which the “concentrations inhibiting agglutination of the erythrocytes” value in assay [1] was “greater than 0.31 mM”.
Still for that read-out and setting: with `OC[C@H]1O[C@@H](O[C@H]2[C@H](O)[C@@H](O)[C@H](O)O[C@@H]2CO)[C@H](O)[C@@H](O)[C@H]1O` [β-lactose] the entry was “greater than 1.25 mM”.
As to Concanavalin A, the agglutination end-point in assay [2] came to 1.5 µg/mL.
In the case of “recombinant 14 kD beta-galactoside-binding soluble lectin (HL-60 / placenta lectin) produced in E. coli (from UniProt P09382 2-135)”, the reduction of the percent of positive cells in assay [3] came out at 26%; in assay [4], 33%.
